Measured values from BindingDB's records for PubMed 7891350 (Parke-Davis Pharmaceutical Research, 1995).

Assays:
[1] = target: T1, Type-2 angiotensin II receptor (Rattus norvegicus, UniProt P35351)
T1 sequence (P35351 whole entry): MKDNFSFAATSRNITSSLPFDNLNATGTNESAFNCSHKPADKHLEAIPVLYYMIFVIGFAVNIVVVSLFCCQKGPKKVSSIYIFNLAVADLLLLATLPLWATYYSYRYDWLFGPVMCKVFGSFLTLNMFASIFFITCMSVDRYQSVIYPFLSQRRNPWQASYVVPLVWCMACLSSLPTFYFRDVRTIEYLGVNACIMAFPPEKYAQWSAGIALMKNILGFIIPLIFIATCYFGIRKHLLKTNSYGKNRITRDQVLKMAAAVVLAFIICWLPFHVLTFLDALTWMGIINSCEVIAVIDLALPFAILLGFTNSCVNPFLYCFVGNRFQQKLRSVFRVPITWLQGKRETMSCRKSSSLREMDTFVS

[2] = target: T2, Type-1 angiotensin II receptor A (Rattus norvegicus, UniProt P25095)
T2 sequence (P25095 whole entry): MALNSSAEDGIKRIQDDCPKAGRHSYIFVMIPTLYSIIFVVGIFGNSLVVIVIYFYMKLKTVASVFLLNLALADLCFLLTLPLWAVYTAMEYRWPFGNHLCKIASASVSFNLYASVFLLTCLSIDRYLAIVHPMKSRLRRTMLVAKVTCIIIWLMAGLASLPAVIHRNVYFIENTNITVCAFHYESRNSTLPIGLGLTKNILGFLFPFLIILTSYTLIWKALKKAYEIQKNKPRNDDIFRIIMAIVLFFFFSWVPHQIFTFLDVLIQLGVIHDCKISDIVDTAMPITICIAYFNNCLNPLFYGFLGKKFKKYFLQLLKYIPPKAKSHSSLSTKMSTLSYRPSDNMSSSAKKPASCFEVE

| Ki [1] [µM] | Ki [2] [µM] | SMILES |
| --- | --- | --- |
| > 10 |  | CCCc1nc(-n2cccc2C(=O)C(F)(F)F)c(C(=O)O)n1Cc1ccc(-c2ccccc2-c2nn[nH]n2)cc1 |
| > 10 |  | CCCCc1ncc(/C=C(\Cc2cccs2)C(=O)O)n1Cc1ccc(C(=O)O)cc1 [(E)-3-[2-n-butyl-1-{(4-carboxyphenyl)methyl}-1H-imidazol-5-yl]-2-(2-thienyl)methyl-2-propenoic acid] |
| > 10 | 0.0007 | CCc1nc2c(C)cc(C)nc2n1-c1ccc(-c2ccccc2-c2nnn[nH]2)cc1 [CAS_123856] |
